Patent publication US6806286B2, “Pyrrolecarboxamides and pyrrolethioamides as fungicides” (Syngenta Crop Protection, Inc., priority 2000, dated 2004)

Experiments:
Etysiphe graminis = assay: Action against Etysiphe graminis/barley (powdery mildew on barley); assay type: in vivo; details: barley plants cv. Express, spray 0.02% active ingredient, inoculated one day after application, assessed after 6 days incubation
Experimental: Action Against Etysiphe graminis/barley (Powdery Mildew on Barley)
1 week old barley plants cv. […] One day after application barley plants are inoculated by shaking powdery mildew infected plants above the test plants. After an incubation period of 6 days at 20° C./18° C. (day/night) and 60% r. h. in a greenhouse the disease incidence is assessed.

Botryts cinerea = assay: Action against Botryts cinerea/tomato (Botrytis on tomatoes); assay type: in vivo; details: tomato plants cv. Roter Gnom, spray 0.002% active ingredient, inoculated two days after application, assessed after 4 days incubation
Experimental: Action Against Botryts cinerea/tomato (Botrytis on Tomatoes)
4 week old tomato plants cv. […] Two days after application tomato plants are inoculated by spraying a spore suspension (1×10^5 conidia/ml) on the test plants. After an incubation period of 4 days at 20° C. and 95% r. h. in a growth chamber the disease incidence is assessed.

Septoria nodorum = assay: Action against Septoria nodorum/wheat (Septoria leaf spot on wheat); assay type: in vivo; details: wheat plants cv. Arina, spray 0.02% active ingredient, inoculated one day after application, assessed 11 days after inoculation
Experimental: Action Against Septoria nodorum/wheat (Septoria Leaf Spot on Wheat)
1 week old wheat plants cv. […] One day after application wheat plants are inoculated by spraying a spore suspension (5×10^5 conidia/ml) on the test plants. After an incubation period of 1 day at 20° C. and 95% r. h. plants are kept for 10 days at 20° C. and 60% r.h. in a greenhouse. The disease incidence is assessed 11 days after inoculation.

Puenophora teres = assay: Action against Puenophora teres/barley (net blotch on barley); assay type: in vivo; details: barley plants cv. Express, spray 0.002% active ingredient, inoculated two days after application, assessed 4 days after inoculation
Experimental: Action Against Puenophora teres/barley (Net Blotch on Barley)
1 week old barley plants cv. […] Two days after application barley plants are inoculated by spraying a spore suspension (3×10^4 conidia/ml) on the test plants. After an incubation period of 2 days at 20° C. and 95% r. h. plants are kept for 2 days at 20° C. and 60% r.h. in a greenhouse. The disease incidence is assessed 4 days after inoculation.

Boftis cinerea = assay: Action against Boftis cinerea/grape (Botrytis on grapes); assay type: in vivo; details: grape seedlings cv. Gutedel, spray 0.002% active ingredient, inoculated two days after application, assessed after 4 days incubation
Experimental: Action Against Boftis cinerea/grape (Botrytis on Grapes)
5 week old grape seedlings cv. […] Two days after application grape plants are inoculated by spraying a spore suspension (1×10^6 conidia/ml) on the test plants. After an incubation period of 4 days at 21° C. and 95% r. h. in a greenhouse the disease incidence is assessed.

Venturia Inaequalis = assay: Action against Venturia inaequalis/apple (scab on apple); assay type: in vivo; details: apple seedlings cv. McIntosh, spray 0.02% active ingredient, inoculated one day after application, assessed after 4+4+4 days incubation
Experimental: Action Against Venturia Inaequalis/apple (Scab on Apple)
4 week old apple seedlings cv. […] One day after application apple plants are inoculated by spraying a spore suspension (4×10^5 conidia/ml) on the test plants. After an incubation period of 4 days at 21° C. and 95% r. h. the plants are placed for 4 days at 21° C. and 60% r. h. in a greenhouse. After another 4 day incubation period at 21° C. and 95% r. h. the disease incidence is assessed.

Botryis cinerea = assay: Action against Botryis cinerea/apple (Botrytis on apple fruits); assay type: in vivo, B. cinerea; details: apple fruit cv. Golden Delicious, 30 μl droplets 0.002% active ingredient in drilled holes, inoculated two hours after application, assessed after 7 days
Experimental: Action Against Botryis cinerea/apple (Botrytis on Apple Fruits)
In an apple fruit cv. […] Two hours after application 50 μl of a spore suspension of B. cinerea (4×10^5 conidia/ml) are pipetted on the application sites. After an incubation period of 7 days at 22° C. in a growth chamber the disease incidence is assessed.

Podosphaera leucotricha = assay: Action against Podosphaera leucotricha/apple (powdery mildew on apple); assay type: in vivo; details: apple seedlings cv. McIntosh, spray 0.002% active ingredient, inoculated one day after application, assessed after 12 days incubation
Experimental: Action Against Podosphaera leucotricha/apple (Powdery Mildew on Apple)
5 week old apple seedlings cv. […] One day after application apple plants are inoculated by shaking plants infected with apple powdery mildew above the test plants. After an incubation period of 12 days at 22° C. and 60% r. h. under a light regime of 14/10 h (light/dark) the disease incidence is assessed.

SMILES | efficacy (disease incidence) (Etysiphe graminis) | efficacy (disease incidence) (Botryts cinerea) | efficacy (disease incidence) (Septoria nodorum) | melting point [°C] | efficacy (disease incidence) (Puenophora teres) | efficacy (disease incidence) (Boftis cinerea) | efficacy (disease incidence) (Venturia Inaequalis) | efficacy (disease incidence) (Botryis cinerea) | efficacy (disease incidence) (Podosphaera leucotricha)
Cc1cn(C)cc1C(=O)Nc1ccccc1-c1ccc(F)cc1 [Compound 1.25] | strong efficacy | strong efficacy | strong efficacy | 148 to 149 | strong efficacy | strong efficacy | strong efficacy | strong efficacy | strong efficacy
Cn1cc(C(=O)Nc2ccccc2C2CCCCC2)c(C2CC2)c1 [Compound 1.206] | strong efficacy | strong efficacy | strong efficacy | – | strong efficacy | strong efficacy | strong efficacy | strong efficacy | strong efficacy
Cn1cc(C(=O)Nc2ccccc2-c2ccc(F)cc2)c(C(F)(F)C(F)(F)F)c1 [Compound 1.192] | strong efficacy | strong efficacy | strong efficacy | – | strong efficacy | strong efficacy | strong efficacy | strong efficacy | strong efficacy
CCc1cn(CC)cc1C(=O)Nc1ccccc1-c1ccc(Cl)cc1 [Compound 1.265] | strong efficacy | strong efficacy | strong efficacy | – | strong efficacy | strong efficacy | strong efficacy | strong efficacy | strong efficacy
Cn1cc(C(=O)Nc2ccccc2-c2ccncc2F)c(C2CC2)c1 [Compound 1.244] | strong efficacy | strong efficacy | strong efficacy | – | strong efficacy | strong efficacy | strong efficacy | strong efficacy | strong efficacy
